Results from patent US12371454B2, “Cyclic peptide compound having Kras inhibitory action” (priority 2019, dated 2025).
Starred links: 1 amine or outer side, 2 acyl side, 3 side chain; linkers in the order of their positions; H or OH if unused. Positions of bridges follow the written chain, without caps; N, C: chain ends. Non-standard residues stand in square brackets, D forms with d. Residues, ends and D or L forms follow the SMILES beside them. *: point of attachment. hPhe(3-Cl-4-CF3) = N[C@@H](CCc1ccc(C(F)(F)F)c(Cl)c1)C(=O)O; NMePhe(4-CF3) = CN[C@@H](Cc1ccc(C(F)(F)F)cc1)C(=O)O; NMePhe(3-Br) = CN[C@@H](Cc1cccc(Br)c1)C(=O)O; NMePhe(4-Me) = CN[C@@H](Cc1ccc(C)cc1)C(=O)O; NMePhe(4-F) = CN[C@@H](Cc1ccc(F)cc1)C(=O)O; NMeAla(cPent) = CN[C@@H](CC1CCCC1)C(=O)O; X22 = O=C([C@@H]1Cc2ccccc2N1[*:1])[*:2]; NMeGly(cPent) = CN[C@H](C(=O)O)C1CCCC1; NMeCha = CN[C@@H](CC1CCCCC1)C(=O)O; NMeChg = CN[C@H](C(=O)O)C1CCCCC1; NMeI = CC[C@H](C)[C@H](NC)C(=O)O; NMeD = CN[C@@H](CC(=O)O)C(=O)O; NMeL = CN[C@@H](CC(C)C)C(=O)O; NMeV = CN[C@H](C(=O)O)C(C)C; d(β3hA) = C[C@@H](N)CC(=O)O; NMeAbu = CC[C@H](NC)C(=O)O; NMeA = CN[C@@H](C)C(=O)O; Piperidide = C1CCN(*)CC1; dNMeA = CN[C@H](C)C(=O)O; Ac5c = NC1(C(=O)O)CCCC1; Aze = O=C(O)[C@@H]1CCN1; Sar = CNCC(=O)O

Biological target: T1, Kras and SOS1 (biotin-tagged human Kras loaded with GDP, His-tagged human SOS1) (Homo sapiens, UniProt P01116, G12D)
T1 construct: made in house; host or cells: E. coli (stated for Kras only)
T1 sequence (P01116 1-188 isoform P01116-2 G12D): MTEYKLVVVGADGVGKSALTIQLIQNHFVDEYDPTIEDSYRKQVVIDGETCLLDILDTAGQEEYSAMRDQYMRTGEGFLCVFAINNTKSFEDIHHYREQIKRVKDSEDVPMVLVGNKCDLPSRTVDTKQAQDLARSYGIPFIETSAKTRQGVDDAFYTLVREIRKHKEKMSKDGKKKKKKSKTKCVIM
Assay: Protein-protein interaction inhibition between Kras and SOS1 (KrasGl2D-SOS PPI) using AlphaScreen
Type: binding
Conditions: AlphaScreen; biotin-tagged human Kras loaded with GDP, His-tagged human SOS1; read-out: KRAS G12D-SOS PPI IC50
Summary of the method: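 Energy transfer from nickel-chelate donor beads bound to His-SOS1 to streptavidin acceptor beads bound to biotin-Kras, expressed in E. coli and loaded with GDP after purification, was monitored. Donors were excited at 680 nm; singlet oxygen reaching acceptors gave emission read at 520-620 nm.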

SMILES	IC50
CC[C@H](C)[C@@H]1NC(=O)[C@H](CC(C)C)N(C)C(=O)C[C@@H](C(=O)N2CCCCC2)N(C)C(=O)[C@H](C2CCCCC2)N(C)C(=O)C2(CCCC2)NC(=O)[C@@H]2Cc3ccccc3N2C(=O)[C@H](CCc2ccc(C(F)(F)F)c(Cl)c2)NC(=O)CN(C)C(=O)[C@H](CC2CCCCC2)N(C)C(=O)CN(C)C(=O)CN(C)C1=O [Compound 514] ([NMeL]I[Sar][Sar][NMeCha][Sar][hPhe(3-Cl-4-CF3)][X22][Ac5c][NMeChg][NMeD]-Piperidide; lactam N-11)	14 nM
CC[C@H](C)[C@@H]1NC(=O)[C@H](C)N(C)C(=O)C[C@@H](C)NC(=O)[C@H](C(C)C)N(C)C(=O)C2(CCCC2)NC(=O)[C@@H]2CCCN2C(=O)[C@H](CCc2ccc(C(F)(F)F)c(Cl)c2)NC(=O)[C@@H](C)N(C)C(=O)[C@H](CC2CCCCC2)N(C)C(=O)[C@@H]2CCN2C(=O)[C@H](CC2CCCCC2)N(C)C1=O [Compound 2015] (cyclo([Ac5c][NMeV][d(β3hA)][NMeA]I[NMeCha][Aze][NMeCha][dNMeA][hPhe(3-Cl-4-CF3)]P))	260 nM
CC[C@H](C)[C@@H]1NC(=O)[C@H](CC(C)C)N(C)C(=O)C[C@@H](C(=O)N2CCCCC2)N(C)C(=O)[C@H](CC)N(C)C(=O)C2(CCCC2)NC(=O)[C@@H]2CCCN2C(=O)[C@H](CCc2ccc(C(F)(F)F)c(Cl)c2)NC(=O)CN(C)C(=O)[C@H](CC2CCCCC2)N(C)C(=O)CN(C)C(=O)CN(C)C1=O [Compound 1741] ([NMeL]I[Sar][Sar][NMeCha][Sar][hPhe(3-Cl-4-CF3)]P[Ac5c][NMeAbu][NMeD]-Piperidide; lactam N-11)	3.8 nM
CC[C@H](C)[C@@H]1NC(=O)[C@H](CC(C)C)N(C)C(=O)C[C@@H](C(=O)N2CCCCC2)N(C)C(=O)[C@H]([C@@H](C)CC)N(C)C(=O)C2(CCCC2)NC(=O)[C@H](Cc2ccc(F)cc2)N(C)C(=O)[C@H](CCc2ccc(C(F)(F)F)c(Cl)c2)NC(=O)CN(C)C(=O)[C@H](Cc2ccc(C)cc2)N(C)C(=O)[C@@H]2CCN2C(=O)[C@H](C)N(C)C1=O [Compound 1876] ([NMeL]I[NMeA][Aze][NMePhe(4-Me)][Sar][hPhe(3-Cl-4-CF3)][NMePhe(4-F)][Ac5c][NMeI][NMeD]-Piperidide; lactam N-11)	98 nM
CC[C@H](C)[C@@H]1NC(=O)[C@H](CC2CCCCC2)N(C)C(=O)C[C@@H](C)NC(=O)[C@H](C(C)C)N(C)C(=O)C2(CCCC2)NC(=O)[C@@H]2CCCN2C(=O)[C@H](CCc2ccc(C(F)(F)F)c(Cl)c2)NC(=O)CN(C)C(=O)[C@H](CC2CCCCC2)N(C)C(=O)[C@@H]2CCN2C(=O)[C@H](C)N(C)C1=O [Compound 38] (cyclo([Ac5c][NMeV][d(β3hA)][NMeCha]I[NMeA][Aze][NMeCha][Sar][hPhe(3-Cl-4-CF3)]P))	160 nM
CC[C@H](C)[C@@H]1NC(=O)[C@H](CC(C)C)N(C)C(=O)C[C@@H](C)NC(=O)[C@H](C(C)C)N(C)C(=O)C2(CCCC2)NC(=O)[C@@H]2CCCN2C(=O)[C@H](CCc2ccc(C(F)(F)F)c(Cl)c2)NC(=O)CN(C)C(=O)[C@H](CC2CCCCC2)N(C)C(=O)[C@@H]2CCN2C(=O)[C@H](CC2CCCC2)N(C)C1=O [Compound 1618] (cyclo([Ac5c][NMeV][d(β3hA)][NMeL]I[NMeAla(cPent)][Aze][NMeCha][Sar][hPhe(3-Cl-4-CF3)]P))	290 nM
CC[C@H](C)[C@@H]1NC(=O)[C@H](CC(C)C)N(C)C(=O)C[C@@H](C(=O)N2CCCCC2)N(C)C(=O)[C@H](C2CCCCC2)N(C)C(=O)C2(CCCC2)NC(=O)[C@@H](C)NC(=O)[C@H](CCc2ccc(C(F)(F)F)c(Cl)c2)NC(=O)CN(C)C(=O)[C@H](CC2CCCCC2)N(C)C(=O)CN(C)C(=O)CN(C)C1=O [Compound 277] ([NMeL]I[Sar][Sar][NMeCha][Sar][hPhe(3-Cl-4-CF3)][dA][Ac5c][NMeChg][NMeD]-Piperidide; lactam N-11)	5.1 nM
CC[C@H](C)[C@@H]1NC(=O)[C@H](CC(C)C)N(C)C(=O)C[C@@H](C(=O)N(C)C)N(C)C(=O)[C@H]([C@@H](C)CC)N(C)C(=O)C2(CCCC2)NC(=O)[C@H](Cc2cccc(Br)c2)N(C)C(=O)[C@H](CCc2ccc(C(F)(F)F)c(Cl)c2)NC(=O)CN(C)C(=O)[C@H](Cc2ccc(C)cc2)N(C)C(=O)[C@@H]2CCN2C(=O)[C@H](C)N(C)C1=O [Compound 1873] ([NMeL]I[NMeA][Aze][NMePhe(4-Me)][Sar][hPhe(3-Cl-4-CF3)][NMePhe(3-Br)][Ac5c][NMeI][NMeD]-NMe2; lactam N-11)	33 nM
CC[C@H](C)[C@@H]1NC(=O)[C@H](C)N(C)C(=O)C[C@@H](C)NC(=O)[C@H](C2CCCC2)N(C)C(=O)C2(CCCC2)NC(=O)[C@@H]2CCCN2C(=O)[C@H](CCc2ccc(C(F)(F)F)c(Cl)c2)NC(=O)[C@@H](C)N(C)C(=O)[C@H](Cc2ccc(C(F)(F)F)cc2)N(C)C(=O)[C@@H]2CCN2C(=O)CN(C)C1=O [Compound 1507] (cyclo([Ac5c][NMeGly(cPent)][d(β3hA)][NMeA]I[Sar][Aze][NMePhe(4-CF3)][dNMeA][hPhe(3-Cl-4-CF3)]P))	24 nM
